Assay results published in US6403831B1, “Substituted benzylidene indenyl formamides, acetamides and propionamides” (Cell Pathways, Inc., priority 1996, dated 2002).
pEC50, pIC50: −log10 of the molar value.

Assays:
[1] = test system: human colon carcinoma cell line, SW-480; assay: Growth inhibition, Sulforhodamine B (SRB) protein binding assay; assay type: cell-based; details: SW-480 cell line, six days continuous exposure
How it was run: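 SW-480 cells at 1000 cells/well exposed continuously to compound for six days in RPMI with 5% FCS, 0.1% DMSO vehicle. Growth measured by sulforhodamine B staining and optical density relative to controls; IC50 read graphically from mean values, three wells per concentration.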

[2] = test system: HT-29 human colon carcinoma cells; assay: Apoptosis by morphology (acridine orange/ethidium bromide, condensed chromatin); assay type: cell-based; details: HT-29 cells
[3] = target: T1, COX I (Ovis aries, UniProt P05979); assay: Cyclooxygenase (COX) inhibition, purified COX; assay type: biochemical; details: 100 μM test compound; purified COX from ram seminal vesicles, arachidonic acid 100 μM
T1 construct: The COX was purified form ram seminal vesicles; from tissue; host or cells: ram seminal vesicles
T1 sequence (P05979 25-600): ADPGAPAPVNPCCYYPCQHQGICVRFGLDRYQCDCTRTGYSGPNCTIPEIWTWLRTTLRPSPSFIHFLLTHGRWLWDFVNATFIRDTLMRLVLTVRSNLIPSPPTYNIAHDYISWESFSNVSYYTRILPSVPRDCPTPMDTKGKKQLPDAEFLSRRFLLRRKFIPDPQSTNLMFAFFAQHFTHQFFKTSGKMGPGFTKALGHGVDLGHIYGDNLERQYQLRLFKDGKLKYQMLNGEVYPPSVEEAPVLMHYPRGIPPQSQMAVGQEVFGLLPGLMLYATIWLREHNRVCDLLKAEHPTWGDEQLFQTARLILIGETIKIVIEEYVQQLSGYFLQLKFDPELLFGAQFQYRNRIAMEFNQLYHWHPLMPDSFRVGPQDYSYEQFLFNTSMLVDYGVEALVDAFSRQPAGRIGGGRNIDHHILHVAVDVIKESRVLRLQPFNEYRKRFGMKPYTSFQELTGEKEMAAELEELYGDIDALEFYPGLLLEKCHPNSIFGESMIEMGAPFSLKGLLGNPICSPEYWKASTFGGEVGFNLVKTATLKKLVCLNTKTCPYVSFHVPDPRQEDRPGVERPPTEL
How it was run: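 Ram seminal vesicle COX, purified, was incubated 2.0 min at 37° C with 100 μM arachidonic acid with or without test compounds. Reactions stopped with TCA; activity read as absorbance at 530 nm.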

[4] = test system: SW-480 colon adenocarcinoma cells; assay: Apoptosis by DNA fragmentation (Cell Death Detection ELISA plus); assay type: cell-based, human; details: SW-480 cells, 48 hrs

## C=CCNC(=O)CC1=C(C)/C(=C/c2cc(OC)c(OC)c(OC)c2)c2ccc(F)cc21 [Example 28, (Z)-5-fluoro-2-methyl-1-(3,4,5-trimethoxybenzylidene)-3-(N-allyl)-indenylacetamide]
[1]
  pIC50: 6.43
[2]
  Morphology % Apoptotic Cells (1 μM): 35%
[3]
  COX I % Inhibition (100 μM): <25%
[4]; by software or estimated from effective concentration range
  pEC50: 6.64
[4]; fold stimulation FS=ODmax/ODveh, 100 μM
  DNA Fragmentation FS (100 μM): 2.3
